Assay results from PMC5400565, “Real-time near-infrared fluorescence imaging using cRGD-ZW800-1 for intraoperative visualization of multiple cancer types” (Oncotarget, 2017).

Legend:
HT-29 colorectal tumors = assay: NIR fluorescence imaging, HT-29 colorectal tumors, dose-ranging; assay type: in vivo, mice
Description: To induce subcutaneous tumors, colorectal cancer cells (HT-29) were injected at 4 sites on the back (500,000 cells per spot). Subsequently, these colorectal tumor cells were transplanted on the colon of other mice, as described by Tseng et al.. Approximately 500,000 pancreatic tumor cells (BxPC-3) were injected into the pancreas, as previously described by Kim et al.. Approximately 40,000 oral tumor cells (OSC-19) were injected in the tongue, as previously described by van Driel et al.. Approximately 500,000 breast tumor cells (MCF-7) were injected in both sides of the mammary fat pad to induce breast cancer tumors.
All animals were imaged using a Pearl® imager (LI-COR, Lincoln, NE) and an original FLARE® prototype. Animals with HT-29 tumors were imaged at 4 and 24 h post injection; animals with BxPC-3 and OSC-19 tumors at 4 h only. Animals with MCF-7 tumors were imaged at 0.5, 1, 2, 4, 6, 8, 24 and 48 h post injection. […] TBRs were calculated by dividing the tumor signal by the background signal. […]
(§1) Mice were administered with 0.25 (HT-29 model only), 1.0, 10, or 30 nmol cRGD-ZW800-1 to evaluate tumor signals, biodistribution, and to calculate TBRs (n = 3 per dose group). At 4 h (BxPC-3 model) and 24 h (HT-29 model) after injection, mice were fully dissected and fluorescence intensity of their organs was measured.

[1] = biological target: T1, lymphocyte-specific protein tyrosine kinase (LCK) (Homo sapiens, UniProt P06239); assay: Off-target screening (Eurofins Cerep), Lck kinase; assay type: biochemical
T1 construct: Eurofins Cerep SA (contract screen)

HT-29 tumors and organs = assay: Ex vivo biodistribution, HT-29 model; assay type: in vivo, mice; conditions: 24 h post injection
Description: After imaging, mice were sacrificed and OSC-19 and BxPC-3 tumors were quickly frozen in isopentane at -80°C for histological evaluation. Tissues were sectioned at 10 μm and fluorescence imaging was performed using fluorescence microscopy (Nikon eclipse e800, Nikon, Amsterdam, The Netherlands). All histologic sections were stained with standard hematoxylin-eosin stain (HE). Organs of mice with colorectal and pancreatic cancer were collected and imaged using the Pearl® to evaluate biodistribution.
as §1
Mice bearing orthotopic OSC-19 tumors (n = 2) were administrated with 10 nmol cRGD-ZW800-1 and imaged at 4 h. Mice bearing orthotopic MCF-7 tumors (n = 2) were injected with 10 nmol cRGD-ZW800-1 and imaged at 0.5, 1, 2, 4, 6, 8, 24, and 48 h post injection. […] In vivo TBRs were calculated by dividing the mean fluorescence signals of tumors by the mean of surrounding tissue. Ex vivo organ-to-tumor ratios were calculated by dividing the fluorescence intensity of the organ by that of the tumor.

Adrenergic α1A = biological target: T2, Adrenergic α1A (Homo sapiens, UniProt P35348); assay: Off-target screening (Eurofins Cerep), α1A; assay type: binding
T2 construct: Eurofins Cerep SA (contract screening)
T2 sequence (P35348 1-466): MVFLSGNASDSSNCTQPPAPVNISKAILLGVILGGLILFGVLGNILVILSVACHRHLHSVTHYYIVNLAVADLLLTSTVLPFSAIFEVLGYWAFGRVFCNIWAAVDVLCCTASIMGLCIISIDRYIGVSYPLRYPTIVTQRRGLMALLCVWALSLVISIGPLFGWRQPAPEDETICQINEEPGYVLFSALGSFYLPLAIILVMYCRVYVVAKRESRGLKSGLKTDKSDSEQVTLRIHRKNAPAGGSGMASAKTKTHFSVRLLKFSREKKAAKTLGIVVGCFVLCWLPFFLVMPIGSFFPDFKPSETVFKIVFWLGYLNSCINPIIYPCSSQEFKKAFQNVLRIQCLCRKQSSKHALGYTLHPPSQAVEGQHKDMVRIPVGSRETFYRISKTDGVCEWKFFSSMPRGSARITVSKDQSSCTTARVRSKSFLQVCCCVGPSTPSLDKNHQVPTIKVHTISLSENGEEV
Text: (§2) Off-target interactions are binding of tracers to other components on the cell surface than the actual target site. These non-specific interactions are often of low affinity and easily missed, but can have significant effects. We outsourced the screening for in vitro for off-target interactions of cRGD-ZW800-1 to Eurofins Cerep SA, Le bois l’Evêque, France. They assessed the percentage of inhibition of a reference compound in 44 selected targets, including G protein-coupled receptors (GPCRs), transporters, ion channels, nuclear receptors, kinases and other non-kinase enzymes. These targets were recommended by four major pharmaceutical companies. The complete list is included in Supplementary Table 1 of the Supplementary Data. Each assay was performed twice using 10 μM cRGD-ZW800-1 and a reference compound. Inhibition higher than 50% was considered to represent a significant effect of cRGD-ZW800-1. Results showing between 20% and 50% were considered weak to moderate effects, while lower than 20% was not considered significant and mostly attributable to variability of the signal around the control level.

Serotonin channels 5-HT3 = biological target: T3, Serotonin channels 5-HT3 (Homo sapiens, UniProt P46098); assay: Off-target screening (Eurofins Cerep), 5-HT3; assay type: binding
T3 construct: Eurofins Cerep SA (contract screen)

PDE4D2 = biological target: T4, PDE4D2 (Homo sapiens, UniProt Q08499); assay: Off-target screening (Eurofins Cerep), PDE4D2; assay type: biochemical
T4 construct: Eurofins Cerep SA (contract screen)

[2] = Toxicology study in rats (unpublished data)
[3] = biological target: T5, 5-hydroxytryptamine (serotonin) receptor 2B (5-HT2B) (Homo sapiens, UniProt P41595); assay: Off-target screening (Eurofins Cerep), 5-HT2B; assay type: binding
T5 construct: Eurofins Cerep SA (contract screening)
Text: as §2

Vasopressin V1a = biological target: T6, Vasopressin V1a (Homo sapiens, UniProt P37288); assay: Off-target screening (Eurofins Cerep), V1a; assay type: binding
T6 construct: Eurofins Cerep SA (contract screening)

Endothelin ETA = biological target: T7, Endothelin ETA (Homo sapiens, UniProt P25101); assay: Off-target screening (Eurofins Cerep), ETA; assay type: binding
T7 construct: Eurofins Cerep SA (contract screening)

[4] = 10 μM, mean of 2, read-out: % of Control Specific Binding Mean
[5] = read-out: % Inhibition of Control Specific Binding
[6] = read-out: % of Control Specific Binding Mean
[7] = 10 μM cRGD-ZW800-1, format H, Ag, performed twice, read-out: % Inhibition of Control Specific Binding

T4 sequence (Q08499 303-809): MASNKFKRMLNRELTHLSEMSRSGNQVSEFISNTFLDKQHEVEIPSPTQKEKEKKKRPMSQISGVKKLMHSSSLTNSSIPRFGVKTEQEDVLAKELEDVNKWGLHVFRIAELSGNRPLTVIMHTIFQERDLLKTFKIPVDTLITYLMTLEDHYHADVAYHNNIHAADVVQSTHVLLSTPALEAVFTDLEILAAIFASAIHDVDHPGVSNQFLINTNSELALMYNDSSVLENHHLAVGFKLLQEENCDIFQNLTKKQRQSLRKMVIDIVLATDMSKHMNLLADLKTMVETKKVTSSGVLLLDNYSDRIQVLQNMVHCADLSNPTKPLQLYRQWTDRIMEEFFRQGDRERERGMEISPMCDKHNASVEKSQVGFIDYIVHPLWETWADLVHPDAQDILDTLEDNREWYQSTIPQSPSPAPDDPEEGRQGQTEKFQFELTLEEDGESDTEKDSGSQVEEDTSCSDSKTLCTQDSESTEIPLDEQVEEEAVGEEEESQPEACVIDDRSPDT
T7 sequence (P25101 21-427): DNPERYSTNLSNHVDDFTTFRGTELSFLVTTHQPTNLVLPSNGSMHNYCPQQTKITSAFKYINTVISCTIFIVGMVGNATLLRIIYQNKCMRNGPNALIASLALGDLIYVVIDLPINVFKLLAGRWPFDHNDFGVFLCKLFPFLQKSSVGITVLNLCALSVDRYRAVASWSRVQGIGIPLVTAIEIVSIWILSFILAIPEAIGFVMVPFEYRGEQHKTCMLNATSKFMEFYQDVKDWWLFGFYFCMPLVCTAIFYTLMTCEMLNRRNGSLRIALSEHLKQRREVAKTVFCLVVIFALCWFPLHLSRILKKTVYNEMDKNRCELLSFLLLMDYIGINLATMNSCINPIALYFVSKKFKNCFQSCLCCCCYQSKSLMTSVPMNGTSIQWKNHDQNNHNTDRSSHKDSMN
T1 sequence (P06239 whole entry): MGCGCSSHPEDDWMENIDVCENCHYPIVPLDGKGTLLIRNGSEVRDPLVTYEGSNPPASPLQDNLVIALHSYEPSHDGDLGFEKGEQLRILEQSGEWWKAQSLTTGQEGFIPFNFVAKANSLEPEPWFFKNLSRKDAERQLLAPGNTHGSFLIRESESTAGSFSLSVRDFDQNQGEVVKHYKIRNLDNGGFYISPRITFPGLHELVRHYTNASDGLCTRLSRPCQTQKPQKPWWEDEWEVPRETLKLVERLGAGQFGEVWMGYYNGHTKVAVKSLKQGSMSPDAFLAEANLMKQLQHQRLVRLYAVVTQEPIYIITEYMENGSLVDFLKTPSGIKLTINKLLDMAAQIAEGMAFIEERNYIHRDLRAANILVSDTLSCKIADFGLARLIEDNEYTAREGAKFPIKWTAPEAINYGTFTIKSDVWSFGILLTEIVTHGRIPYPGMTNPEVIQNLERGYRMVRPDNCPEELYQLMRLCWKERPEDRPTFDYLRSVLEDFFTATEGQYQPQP
T3 sequence (P46098 24-478): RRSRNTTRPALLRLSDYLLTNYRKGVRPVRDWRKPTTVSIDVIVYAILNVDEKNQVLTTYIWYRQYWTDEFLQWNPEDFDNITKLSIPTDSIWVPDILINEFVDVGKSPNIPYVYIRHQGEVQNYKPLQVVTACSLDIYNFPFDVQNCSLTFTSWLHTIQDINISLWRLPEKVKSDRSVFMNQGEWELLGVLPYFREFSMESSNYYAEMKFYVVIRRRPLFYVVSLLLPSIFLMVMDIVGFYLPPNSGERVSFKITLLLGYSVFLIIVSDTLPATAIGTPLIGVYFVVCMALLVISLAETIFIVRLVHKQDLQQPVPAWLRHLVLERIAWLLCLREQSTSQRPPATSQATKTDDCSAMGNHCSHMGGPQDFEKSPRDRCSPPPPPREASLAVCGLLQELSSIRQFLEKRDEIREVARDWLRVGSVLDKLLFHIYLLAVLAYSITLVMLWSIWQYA
T5 sequence (P41595 whole entry): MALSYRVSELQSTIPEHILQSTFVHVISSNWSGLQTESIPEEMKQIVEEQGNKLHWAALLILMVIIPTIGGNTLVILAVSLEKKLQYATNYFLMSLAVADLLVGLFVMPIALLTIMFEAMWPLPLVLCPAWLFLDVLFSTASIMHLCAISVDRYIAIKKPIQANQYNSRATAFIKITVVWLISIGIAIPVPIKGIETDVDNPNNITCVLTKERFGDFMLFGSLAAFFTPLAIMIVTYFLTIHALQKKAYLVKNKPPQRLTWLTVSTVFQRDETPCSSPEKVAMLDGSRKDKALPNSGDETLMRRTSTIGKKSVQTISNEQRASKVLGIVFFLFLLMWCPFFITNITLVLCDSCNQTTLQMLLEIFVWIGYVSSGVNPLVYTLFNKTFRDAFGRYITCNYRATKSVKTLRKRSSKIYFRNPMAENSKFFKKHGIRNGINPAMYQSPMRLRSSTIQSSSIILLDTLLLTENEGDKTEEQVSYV
T6 sequence (P37288 whole entry): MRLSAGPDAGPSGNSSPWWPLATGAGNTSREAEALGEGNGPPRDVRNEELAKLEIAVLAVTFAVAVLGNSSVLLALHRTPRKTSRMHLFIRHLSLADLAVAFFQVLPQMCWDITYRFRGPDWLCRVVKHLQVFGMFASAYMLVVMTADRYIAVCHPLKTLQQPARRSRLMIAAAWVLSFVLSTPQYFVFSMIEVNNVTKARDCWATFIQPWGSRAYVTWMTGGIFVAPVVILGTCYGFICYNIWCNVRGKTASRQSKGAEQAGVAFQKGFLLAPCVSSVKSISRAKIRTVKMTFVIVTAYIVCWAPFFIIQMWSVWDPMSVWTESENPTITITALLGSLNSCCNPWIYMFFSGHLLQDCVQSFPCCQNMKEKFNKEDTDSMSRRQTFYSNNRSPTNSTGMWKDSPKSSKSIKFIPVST

Structure (SMILES): CC1(C)C(/C=C/C2=C(Oc3ccc(CCC(=O)NCCCC[C@@H]4NC(=O)[C@@H](Cc5ccc(O)cc5)NC(=O)[C@H](CC(=O)O)NC(=O)CNC(=O)[C@H](CCCNC(=N)N)NC4=O)cc3)C(=C/C=C3/N(CCC[N+](C)(C)C)c4ccc(S(=O)(=O)O)cc4C3(C)C)/CCC2)=[N+](CCC[N+](C)(C)C)c2ccc(S(=O)(=O)O)cc21 [cRGD-ZW800-1]
- TBRs at 4 and 24 h post injection (HT-29 colorectal tumors; HT-29, 1, 10 and 30 nmol dose groups, n = 3 per dose group): > 2
- optimal dose (HT-29 colorectal tumors; mice, doses of 0.25, 1.0, 10, 30 nmol explored, Pearl and FLARE): 10 nmol
- inhibition at 10 µM ([1]; 10 μM cRGD-ZW800-1, format H, performed twice, read-out: % Inhibition of Control Specific Binding): 28%
- remaining activity at 10 µM [1, 4]: 72.3%
- fluorescence signal in kidneys (all dose groups), liver and skin (only 10 and 30 nmol) compared to tumor (HT-29 tumors and organs): higher
- tumor fluorescence relative to lungs, pancreas, muscle, gallbladder, brain, and blood (HT-29 tumors and organs; all dose groups): more than twice as fluorescent
- inhibition at 10 µM (Adrenergic α1A; 10 μM cRGD-ZW800-1, format H, An, performed twice, read-out: % Inhibition of Control Specific Binding): 9%
- remaining activity at 10 µM (Adrenergic α1A; [4]): 90.6%
- inhibition at 10 µM (Serotonin channels 5-HT3; [5]): 12%
- remaining activity at 10 µM (Serotonin channels 5-HT3; [6]): 87.7%
- inhibition at 10 µM (PDE4D2; [5]): 10%
- remaining activity at 10 µM (PDE4D2; [6]): 90.3%
- safe starting dose for first in-human studies ([2]; 10% of the HED of the NOAEL (FDA recommendation)): 0.08 mg/kg
- human equivalent dose (HED) of the NOAEL ([2]; NOAEL of 5.0 mg/kg in rats adjusted for body surface area): 0.80 mg/kg
- toxicology findings ([2]; rats, intravenous injection of 5.0 mg/kg, unpublished data): neither clinical symptoms, nor treatment-related histopathological, biochemical, and hematological abnormalities
- no observable adverse event level (NOAEL) ([2]; rats, intravenous injection, unpublished data): at least 5.0 mg/kg
- inhibition at 10 µM [3, 7]: 29%
- remaining activity at 10 µM [3, 4]: 70.9%
- inhibition at 10 µM (Vasopressin V1a; [7]): 4%
- remaining activity at 10 µM (Vasopressin V1a; [4]): 96%
- inhibition at 10 µM (Endothelin ETA; [7]): 1%
- remaining activity at 10 µM (Endothelin ETA; [4]): 98.6%
